PMC5781229 (Analytical biochemistry, 2017)

Biological target: TET2 (Homo sapiens, UniProt Q6N021, DEL1481-1843)

Km: 15.7 µM
SMILES: O=C(O)CCC(=O)C(=O)O [compound 1, 2KG]
